Test results taken from patent US12274751B2, “Composition and method of the use of colchicine oral liquid” (priority 2016, dated 2025).

Columns and labels:
in vitro = details: human, Caco-2
Method: To verify the Caco-2 cell monolayers were properly formed, aliquots of the cell buffers were analyzed by fluorescence to determine the transport of the impermeable dye Lucifer Yellow.

[1] = Stability of colchicine solution, colchicine assay (% label claim); assay type: physicochemical; details: API (colchicine drug substance), calculated on the anhydrous, solvent-free basis
Method: The colchicine solution is formulated and assayed for colchicine levels. Stability of the claimed formulation was tested at room temperature, 30° C., and 40° C. and assayed for the colchicine. […] The fact that the oral solution was so stable after 6 months at an accelerated temperature (40 degrees Celsius, which corresponds to 24 months at room temperature) was quite surprising. Solutions of colchicine for oral administration to humans have not been developed because they were believed to be too unstable. The data presented herein show for the first time that an oral colchicine solution can remain stable with minimal degradants and thus have a long shelf life consistent with commercial formulations.
The colchicine solution in Table 4 was packaged in a 190 mL HDPE bottle and assayed by HPLC cUSP.
The label claim of the liquid solution is 0.12 mg/ml and the assay results of the active ingredient are reported as percent of label claim. For instance, the label claim of an exemplary colchicine solution of the invention is 0.12 mg/ml. The FDA requirement for stability results for drugs is 90-110% label claim.

[2] = in the presence of glycerin; Habib et al. 1989; cited from earlier work

## COCCc1ccc(OCC(O)CNC(C)C)cc1 (centres unmarked) [metoprolol]
In vitro
  Papp A→B: 13.7 ×10⁻⁶ cm/s
  Papp B→A: 27.2 ×10⁻⁶ cm/s

## CNC(=C[N+](=O)[O-])NCCSCc1ccc(CN(C)C)o1 [ranitidine]
In vitro
  Papp A→B: 0.27 ×10⁻⁶ cm/s

## COc1cc2c(c(OC)c1OC)-c1ccc(OC)c(=O)cc1[C@@H](NC(C)=O)CC2 [Colchicine, (−)-N-[(7S,12aS)-1,2,3,10-tetramethoxy-9-oxo-5,6,7,9-tetrahydrobenzo[a]heptalen-7-yl]-acetamide]
[1]
  Stability Results (% Label Claim): 91.8% Label Claim
[2]
  loss by photodegradation in solution: ≤ 50%
